IC50 data for 24 molecules are collected here from patent US9382258B2, “Agents for treating pain and uses thereof” (AbbVie Inc., priority 2012, dated 2016).

pIC50: −log10 of the molar value.

T1 sequence (Q00975 whole entry): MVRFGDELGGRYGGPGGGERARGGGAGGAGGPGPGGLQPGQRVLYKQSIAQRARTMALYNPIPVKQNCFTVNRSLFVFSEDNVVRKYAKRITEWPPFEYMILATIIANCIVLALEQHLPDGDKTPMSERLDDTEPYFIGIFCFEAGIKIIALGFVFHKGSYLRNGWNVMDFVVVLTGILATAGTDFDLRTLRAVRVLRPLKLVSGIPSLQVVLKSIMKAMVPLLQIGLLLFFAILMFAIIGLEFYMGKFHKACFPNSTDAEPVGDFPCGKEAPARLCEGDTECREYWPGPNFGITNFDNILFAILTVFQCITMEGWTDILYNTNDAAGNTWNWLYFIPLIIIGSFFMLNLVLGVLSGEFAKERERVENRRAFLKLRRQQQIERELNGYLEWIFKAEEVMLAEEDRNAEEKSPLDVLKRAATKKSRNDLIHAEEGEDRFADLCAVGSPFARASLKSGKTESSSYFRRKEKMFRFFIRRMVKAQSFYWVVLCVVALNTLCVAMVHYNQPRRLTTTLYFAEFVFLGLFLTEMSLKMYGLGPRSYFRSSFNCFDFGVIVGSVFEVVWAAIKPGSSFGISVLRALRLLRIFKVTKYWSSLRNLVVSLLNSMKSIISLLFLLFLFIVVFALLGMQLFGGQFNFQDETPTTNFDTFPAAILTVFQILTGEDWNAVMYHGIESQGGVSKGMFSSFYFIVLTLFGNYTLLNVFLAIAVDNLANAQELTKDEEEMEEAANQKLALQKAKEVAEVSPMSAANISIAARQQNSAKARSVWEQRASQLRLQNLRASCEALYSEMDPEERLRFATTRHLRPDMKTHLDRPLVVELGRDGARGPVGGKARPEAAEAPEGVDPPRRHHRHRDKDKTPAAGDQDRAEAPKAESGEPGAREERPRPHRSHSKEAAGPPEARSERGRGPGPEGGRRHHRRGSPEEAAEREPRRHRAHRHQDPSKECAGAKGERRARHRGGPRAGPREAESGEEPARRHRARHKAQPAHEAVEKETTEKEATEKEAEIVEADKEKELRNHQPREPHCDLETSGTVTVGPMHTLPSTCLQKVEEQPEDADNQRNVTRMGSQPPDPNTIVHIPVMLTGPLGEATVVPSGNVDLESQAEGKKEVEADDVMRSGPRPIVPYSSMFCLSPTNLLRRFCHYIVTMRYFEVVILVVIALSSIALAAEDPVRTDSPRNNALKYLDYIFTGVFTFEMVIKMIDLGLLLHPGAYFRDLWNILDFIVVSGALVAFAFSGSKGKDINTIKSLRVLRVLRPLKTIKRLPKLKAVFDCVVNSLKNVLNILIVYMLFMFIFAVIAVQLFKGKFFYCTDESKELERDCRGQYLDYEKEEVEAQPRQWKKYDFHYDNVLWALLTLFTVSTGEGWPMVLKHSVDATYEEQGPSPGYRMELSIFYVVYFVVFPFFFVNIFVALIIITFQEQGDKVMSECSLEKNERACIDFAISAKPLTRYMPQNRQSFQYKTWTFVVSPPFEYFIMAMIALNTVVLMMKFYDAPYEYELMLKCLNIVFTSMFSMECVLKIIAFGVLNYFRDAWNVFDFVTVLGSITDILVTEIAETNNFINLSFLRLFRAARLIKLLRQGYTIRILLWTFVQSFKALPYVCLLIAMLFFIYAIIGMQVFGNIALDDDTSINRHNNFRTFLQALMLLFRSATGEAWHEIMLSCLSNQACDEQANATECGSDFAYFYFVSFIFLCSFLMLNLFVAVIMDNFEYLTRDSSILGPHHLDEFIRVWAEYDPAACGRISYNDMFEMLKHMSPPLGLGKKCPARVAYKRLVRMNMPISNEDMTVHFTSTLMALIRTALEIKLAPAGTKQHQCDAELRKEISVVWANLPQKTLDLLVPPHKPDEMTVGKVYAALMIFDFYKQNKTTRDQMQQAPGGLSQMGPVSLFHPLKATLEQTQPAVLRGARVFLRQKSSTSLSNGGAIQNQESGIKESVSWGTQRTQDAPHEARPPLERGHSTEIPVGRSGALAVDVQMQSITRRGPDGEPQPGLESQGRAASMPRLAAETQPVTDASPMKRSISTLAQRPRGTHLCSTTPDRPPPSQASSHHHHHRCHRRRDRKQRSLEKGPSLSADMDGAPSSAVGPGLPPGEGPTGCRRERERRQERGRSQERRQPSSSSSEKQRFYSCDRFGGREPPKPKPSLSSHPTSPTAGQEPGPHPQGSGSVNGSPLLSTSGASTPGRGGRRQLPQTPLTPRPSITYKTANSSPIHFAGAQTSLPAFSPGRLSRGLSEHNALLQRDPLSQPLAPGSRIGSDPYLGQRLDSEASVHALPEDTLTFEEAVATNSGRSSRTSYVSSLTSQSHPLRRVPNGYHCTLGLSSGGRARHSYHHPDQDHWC
T1 sequence (P54284 whole entry partner): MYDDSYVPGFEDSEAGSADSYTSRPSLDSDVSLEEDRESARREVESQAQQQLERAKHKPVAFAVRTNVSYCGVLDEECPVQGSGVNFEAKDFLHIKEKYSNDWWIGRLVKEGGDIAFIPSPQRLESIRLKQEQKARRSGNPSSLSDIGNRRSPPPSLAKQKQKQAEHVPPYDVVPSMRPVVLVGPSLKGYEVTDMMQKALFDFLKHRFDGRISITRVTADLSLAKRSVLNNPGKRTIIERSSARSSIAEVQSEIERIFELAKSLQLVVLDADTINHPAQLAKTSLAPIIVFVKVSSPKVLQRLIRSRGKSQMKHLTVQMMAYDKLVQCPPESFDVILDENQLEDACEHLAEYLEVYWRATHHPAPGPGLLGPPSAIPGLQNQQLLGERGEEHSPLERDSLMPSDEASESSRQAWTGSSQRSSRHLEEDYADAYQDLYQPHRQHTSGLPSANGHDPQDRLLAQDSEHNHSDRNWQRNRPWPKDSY
T1 sequence (P54289 25-956 partner limits assumed): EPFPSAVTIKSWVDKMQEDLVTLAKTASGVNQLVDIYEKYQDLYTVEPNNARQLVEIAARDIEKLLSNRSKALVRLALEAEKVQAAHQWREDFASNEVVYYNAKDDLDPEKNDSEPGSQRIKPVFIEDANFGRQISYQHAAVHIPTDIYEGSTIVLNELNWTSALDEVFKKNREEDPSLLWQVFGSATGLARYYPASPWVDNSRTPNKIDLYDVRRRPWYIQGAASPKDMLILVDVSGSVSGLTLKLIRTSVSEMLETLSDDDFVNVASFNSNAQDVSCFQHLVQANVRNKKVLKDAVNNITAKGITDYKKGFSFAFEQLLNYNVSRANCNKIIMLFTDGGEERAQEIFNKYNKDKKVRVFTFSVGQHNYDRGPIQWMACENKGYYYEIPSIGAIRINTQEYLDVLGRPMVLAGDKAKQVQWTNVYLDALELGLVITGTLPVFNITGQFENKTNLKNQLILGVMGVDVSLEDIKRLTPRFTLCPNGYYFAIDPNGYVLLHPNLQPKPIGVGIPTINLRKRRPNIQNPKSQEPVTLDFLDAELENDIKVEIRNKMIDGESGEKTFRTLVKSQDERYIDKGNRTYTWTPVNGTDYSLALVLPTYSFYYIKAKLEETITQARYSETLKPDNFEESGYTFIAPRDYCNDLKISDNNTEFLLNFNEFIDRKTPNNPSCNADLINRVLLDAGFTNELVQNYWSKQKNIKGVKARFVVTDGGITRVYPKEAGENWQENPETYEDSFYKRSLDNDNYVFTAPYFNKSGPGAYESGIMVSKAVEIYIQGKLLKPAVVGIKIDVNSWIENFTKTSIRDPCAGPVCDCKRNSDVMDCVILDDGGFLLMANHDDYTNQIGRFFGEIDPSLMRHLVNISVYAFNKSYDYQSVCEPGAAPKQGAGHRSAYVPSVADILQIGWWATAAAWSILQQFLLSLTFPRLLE
T1 sequence (P54289 957-1103 partner limits assumed): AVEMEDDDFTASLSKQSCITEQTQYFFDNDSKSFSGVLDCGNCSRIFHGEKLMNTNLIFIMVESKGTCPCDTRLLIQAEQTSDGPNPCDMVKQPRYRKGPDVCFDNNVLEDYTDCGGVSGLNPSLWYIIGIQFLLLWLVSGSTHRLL

This experiment concerns the target T1, human Cav2.2 (Homo sapiens, UniProt Q00975).
T1 construct: cells endogenously expressing human Cav2.2; endogenous in cells; host or cells: IMR32 cells
The experiment can be described thus: Calcium flux (FLIPR, Calcium 4 dye) in IMR32 cells endogenously expressing human Cav2.2. The class given is cell-based. The settings on record: 60 minute pre-incubation, 2 μM nifedipine to block L-type channels, depolarized with 80 mM KCl, 5 mM CaCl2, average of n≥2 runs unless marked *. How it is done:
Compounds were tested for effect on calcium flux in cells endogenously expressing human Cav2.2. Specifically, IMR32 cells endogenously expressing human Cav2.2 were assayed for Ca^2+ influx using a no-wash calcium indicator dye (Calcium 4 dye: Molecular Probes) and FLIPR technology (Lubin, M L; et al. Assay and Drug Development Technologies, 2006, 4(6), 689-694). The IMR32 cells were maintained in MEM media containing 10% (v/v) FBS, 1% (v/v) antibiotic/antimitotic, 1% (v/v) sodium pyruvate and 1% (v/v) MEM NEAA. Following dissociation in 0.05% (v/v) trypsin/EDTA, cells were seeded into black 1×96-well plates (Corning Cellbind) at a density of 1−1.2×10^5 cells/well and incubated in the maintenance media above for 48 hours at 37° C. Immediately prior to performing the assay the media was removed and cells were loaded for 1.5 hours with 1× Calcium 4 dye prepared in HBSS (137 mM NaCl, 5.4 mM KCl, 0.25 mM Na2HPO4, 0.44 mM KH2PO4, 1.3 mM CaCl2, 1 mM MgSO4, 4.2 mM NaHCO3) containing HEPES pH 7.4 at room temperature. After dye loading and a subsequent 60 minute pre-incubation with compounds (full log dilutions from 10 μM to 0.1 nM) in the presence of 1.3 mM CaCl2 and 2 μM nifedipine to block endogenous L-type channels, the external Ca^2+ concentration was increased to 5 mM CaCl2 and the cells concomitantly depolarized with 80 mM KCl to assay channel activity.
To determine the IC50 values, the percent inhibition of the compound at each concentration was determined relative to the activity in the absence of inhibitor, and data was fitted using non-linear regression sigmoidal dose response curve analysis with GraphPad Prism®. Unless otherwise indicated (*), the reported values are average values from at least two runs (i.e., n≧2).
For `O=C1[C@@H]2C[C@@H](Oc3cnc(C4CC4)cn3)CN2CCCN1Cc1ccc(C(F)(F)F)cc1` [Example 23, (8R,9aS)-8-[(5-cyclopropylpyrazin-2-yl)oxy]-2-[4-(trifluoromethyl)benzyl]octahydro-1H-pyrrolo[1,2-a][1,4]diazepin-1-one], the negative-log IC50 (pIC50) is 6.01.
With `O=C(c1ccc(F)c(C(F)(F)F)c1)N1CCCN2C[C@H](Oc3cnc(C4CC4)cn3)C[C@H]2C1` [Example 14, [(8R,9aS)-8-[(5-cyclopropylpyrazin-2-yl)oxy]hexahydro-1H-pyrrolo[1,2-a][1,4]diazepin-2(3H)-yl][4-fluoro-3-(trifluoromethyl)phenyl]methanone], the negative logarithm of the IC50 (pIC50) was 5.84.
Then `O=C1[C@@H]2C[C@@H](Oc3cnc(C4CC4)cn3)CN2CCCN1Cc1ccc(C(F)(F)F)c(F)c1` [Example 25, (8R,9aS)-8-[(5-cyclopropylpyrazin-2-yl)oxy]-2-[3-fluoro-4-(trifluoromethyl)benzyl]octahydro-1H-pyrrolo[1,2-a][1,4]diazepin-1-one], with 5.92; and `O=C1CCN(S(=O)(=O)c2cccc(C(F)(F)F)c2)C[C@@H]2C[C@@H](Oc3cnc(C4CC4)cn3)CN12` [Example 28, (8R,9aS)-8-[(5-cyclopropylpyrazin-2-yl)oxy]-2-{[3-(trifluoromethyl)phenyl]sulfonyl}octahydro-5H-pyrrolo[1,2-a][1,4]diazepin-5-one], with 5.74; and `O=C1CCN(c2cccc(C(F)(F)F)n2)C[C@@H]2C[C@@H](Oc3cnc(C4CC4)cn3)CN12` [Example 48, (8R,9aS)-8-[(5-cyclopropylpyrazin-2-yl)oxy]-2-[6-(trifluoromethyl)pyridin-2-yl]octahydro-5H-pyrrolo[1,2-a][1,4]diazepin-5-one], with 5.81.
Then `O=C(c1ccc(C(F)(F)F)c(F)c1)N1CCCN2C[C@H](Oc3cnc(C4CC4)cn3)C[C@H]2C1` [Example 15, [(8R,9aS)-8-[(5-cyclopropylpyrazin-2-yl)oxy]hexahydro-1H-pyrrolo[1,2-a][1,4]diazepin-2(3H)-yl][3-fluoro-4-(trifluoromethyl)phenyl]methanone], with 5.88.
`O=S(=O)(c1ccc(C(F)(F)F)cc1)N1CCCN2C[C@H](Oc3cnc(C4CC4)cn3)C[C@H]2C1` [Example 2, (8R,9aS)-8-[(5-cyclopropylpyrazin-2-yl)oxy]-2-{[4-(trifluoromethyl)phenyl]sulfonyl}octahydro-1H-pyrrolo[1,2-a][1,4]diazepane]: the negative-log IC50 (pIC50) was 6.70.
Then `O=C1CCN(S(=O)(=O)c2cccc(C(F)(F)F)c2)C[C@@H]2C[C@@H](Oc3ccc(C(F)(F)F)nc3)CN12` [Example 53, (8R,9aS)-2-{[3-(trifluoromethyl)phenyl]sulfonyl}-8-{[6-(trifluoromethyl)pyridin-3-yl]oxy}octahydro-5H-pyrrolo[1,2-a][1,4]diazepin-5-one], with 5.40; and `O=C1[C@H]2C[C@@H](Oc3cnc(C4CC4)cn3)CN2CCCN1Cc1ccc(C(F)(F)F)cc1` [Example 24, (8R,9aR)-8-[(5-cyclopropylpyrazin-2-yl)oxy]-2-[4-(trifluoromethyl)benzyl]octahydro-1H-pyrrolo[1,2-a][1,4]diazepin-1-one], with 5.53.
With `CNC(C(=O)N1CCC(=O)N2C[C@H](Oc3cnc(C4CC4)cn3)C[C@H]2C1)c1cccc(C(F)(F)F)c1` (stereo partly drawn) [Example 41, (8R,9aS)-8-[(5-cyclopropylpyrazin-2-yl)oxy]-2-{(methylamino)[3-(trifluoromethyl)phenyl]acetyl}octahydro-5H-pyrrolo[1,2-a][1,4]diazepin-5-one] the figure was 5.46; with `O=C(c1cccc(C(F)(F)F)c1)N1CCC(=O)N2C[C@@H](Oc3cnc(C4CC4)cn3)C[C@H]2C1` [Example 60, (8S,9aS)-8-[(5-cyclopropylpyrazin-2-yl)oxy]-2-[3-(trifluoromethyl)benzoyl]octahydro-5H-pyrrolo[1,2-a][1,4]diazepin-5-one], 4.73; with `O=C(c1ccc(C(F)(F)F)cn1)N1CCCN2C[C@H](Oc3cnc(C4CC4)cn3)C[C@H]2C1` [Example 11, [(8R,9aS)-8-[(5-cyclopropylpyrazin-2-yl)oxy]hexahydro-1H-pyrrolo[1,2-a][1,4]diazepin-2(3H)-yl][5-(trifluoromethyl)pyridin-2-yl]methanone], 5.03.
Then `O=C(c1cccc(C(F)(F)F)n1)N1CCCN2C[C@H](Oc3cnc(C4CC4)cn3)C[C@H]2C1` [Example 12, [(8R,9aS)-8-[(5-cyclopropylpyrazin-2-yl)oxy]hexahydro-1H-pyrrolo[1,2-a][1,4]diazepin-2(3H)-yl][6-(trifluoromethyl)pyridin-2-yl]methanone], with 5.21; and `O=C(c1ccc(C(F)(F)F)c(F)c1)N1CCC(=O)N2C[C@H](Oc3cnc(C4CC4)cn3)C[C@H]2C1` [Example 35, (8R,9aS)-8-[(5-cyclopropylpyrazin-2-yl)oxy]-2-[3-fluoro-4-(trifluoromethyl)benzoyl]octahydro-5H-pyrrolo[1,2-a][1,4]diazepin-5-one], with 5.99; and `O=C(c1cccc(C(F)(F)F)c1F)N1CCCN2C[C@H](Oc3cnc(C4CC4)cn3)C[C@H]2C1` [Example 10, [(8R,9aS)-8-[(5-cyclopropylpyrazin-2-yl)oxy]hexahydro-1H-pyrrolo[1,2-a][1,4]diazepin-2(3H)-yl][2-fluoro-3-(trifluoromethyl)phenyl]methanone], with 6.04.
Regarding `O=C1CCN(Cc2ccc(OC(F)(F)F)cc2)C[C@@H]2C[C@H](Oc3cnc(C4CC4)cn3)CN12` [Example 59, (8S,9aS)-8-[(5-cyclopropylpyrazin-2-yl)oxy]-2-[4-(trifluoromethoxy)benzyl]octahydro-5H-pyrrolo[1,2-a][1,4]diazepin-5-one], the negative-log IC50 (pIC50) is 5.50.
With `O=C1CCN(S(=O)(=O)c2ccc(C(F)(F)F)cc2)C[C@H]2C[C@H](Oc3cnc(C4CC4)cn3)CN12` [Example 64, (8S,9aR)-8-[(5-cyclopropylpyrazin-2-yl)oxy]-2-{[4-(trifluoromethyl)phenyl]sulfonyl}octahydro-5H-pyrrolo[1,2-a][1,4]diazepin-5-one] the figure was 5.66; with “(8R,9aS)-8-[(5-cyclopropylpyrazin-2-yl)oxy]-2-{[3-(trifluoromethyl)phenyl]sulfonyl}octahydro-1H-pyrrolo[1,2-a][1,4]diazepane [Example 1]”, 6.49.
Then `O=C(c1ccc(C(F)(F)F)cc1F)N1CCCN2C[C@H](Oc3cnc(C4CC4)cn3)C[C@H]2C1` [Example 18, [(8R,9aS)-8-[(5-cyclopropylpyrazin-2-yl)oxy]hexahydro-1H-pyrrolo[1,2-a][1,4]diazepin-2(3H)-yl][2-fluoro-4-(trifluoromethyl)phenyl]methanone], with 5.92; and `O=C(c1ccc(F)c(C(F)(F)F)c1)N1CCC(=O)N2C[C@H](Oc3cnc(C4CC4)cn3)C[C@H]2C1` [Example 36, (8R,9aS)-8-[(5-cyclopropylpyrazin-2-yl)oxy]-2-[4-fluoro-3-(trifluoromethyl)benzoyl]octahydro-5H-pyrrolo[1,2-a][1,4]diazepin-5-one], with 5.75; and `O=C1CCN(c2ccc(C(F)(F)F)cn2)C[C@@H]2C[C@H](Oc3cnc(C4CC4)cn3)CN12` [Example 30, (8S,9aS)-8-[(5-cyclopropylpyrazin-2-yl)oxy]-2-[5-(trifluoromethyl)pyridin-2-yl]octahydro-5H-pyrrolo[1,2-a][1,4]diazepin-5-one], with 5.20.
Then `O=C1CCN(Cc2ccc(OC(F)(F)F)cc2)C[C@H]2C[C@@H](Oc3cnc(C4CC4)cn3)CN12` [Example 56, (8R,9aR)-8-[(5-cyclopropylpyrazin-2-yl)oxy]-2-[4-(trifluoromethoxy)benzyl]octahydro-5H-pyrrolo[1,2-a][1,4]diazepin-5-one], with 5.60; and `O=C1CCN(S(=O)(=O)c2cccc(C(F)(F)F)c2)C[C@@H]2C[C@@H](Oc3ccc(C(F)(F)F)cn3)CN12` [Example 31, (8R,9aS)-2-{[3-(trifluoromethyl)phenyl]sulfonyl}-8-{[5-(trifluoromethyl)pyridin-2-yl]oxy}octahydro-5H-pyrrolo[1,2-a][1,4]diazepin-5-one], with 6.22.
Regarding `O=C(c1cccc(C(F)(F)F)c1F)N1CCC(=O)N2C[C@H](Oc3cnc(C4CC4)cn3)C[C@H]2C1` [Example 34, (8R,9aS)-8-[(5-cyclopropylpyrazin-2-yl)oxy]-2-[2-fluoro-3-(trifluoromethyl)benzoyl]octahydro-5H-pyrrolo[1,2-a][1,4]diazepin-5-one], the pIC50 was 6.00.

As usually defined, the pIC50 is the IC50 on a negative log10 scale, so that one unit is a factor of ten.
